According to patent US20040002441A1, “Recombination modulators and methods for producing and using the same” (priority 2000, published 2004):
pIC50: −log10 of the molar value. Where no end group is shown, it is not given here.

Columns and labels:
Format in all cases: biochemical
[1] = target: T1, bacteriophage λ Integrase (Int) (Escherichia phage lambda, UniProt P03700); test: Formation of covalent protein-DNA complexes (CPDs) by Int
T1 sequence (P03700 1-356): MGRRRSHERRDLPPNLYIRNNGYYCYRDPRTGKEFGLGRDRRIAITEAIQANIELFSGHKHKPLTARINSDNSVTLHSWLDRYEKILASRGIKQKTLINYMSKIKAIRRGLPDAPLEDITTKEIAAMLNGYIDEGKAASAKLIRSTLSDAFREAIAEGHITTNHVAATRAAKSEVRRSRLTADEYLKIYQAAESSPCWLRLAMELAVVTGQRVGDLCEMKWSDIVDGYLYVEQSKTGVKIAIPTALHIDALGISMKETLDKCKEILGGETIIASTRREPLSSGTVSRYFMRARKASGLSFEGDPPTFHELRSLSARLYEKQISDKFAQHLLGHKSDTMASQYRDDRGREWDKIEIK
From the text: Int, like its relative tyrosine recombinases, makes transient covalent protein-DNA complexes (CPDs) during the cleavage stage of the recombination reaction. […] Since these complexes are the product of DNA cleavage by Int prior to strand exchange or ligation, we tested the effect of peptide KWWCRW on their formation. The peptide inhibited accumulation of both attL and attR CPDs by 65-75% (data not shown), supporting our model that KWWCRW blocks recombination by interfering with the cleavage step of the reaction.

Pst I = target: T2, Pst I (Providencia stuartii, UniProt P00640); test: Restriction enzyme assay on pUC19
T2 construct: purchased New England BioLabs
T2 sequence (P00640 1-326): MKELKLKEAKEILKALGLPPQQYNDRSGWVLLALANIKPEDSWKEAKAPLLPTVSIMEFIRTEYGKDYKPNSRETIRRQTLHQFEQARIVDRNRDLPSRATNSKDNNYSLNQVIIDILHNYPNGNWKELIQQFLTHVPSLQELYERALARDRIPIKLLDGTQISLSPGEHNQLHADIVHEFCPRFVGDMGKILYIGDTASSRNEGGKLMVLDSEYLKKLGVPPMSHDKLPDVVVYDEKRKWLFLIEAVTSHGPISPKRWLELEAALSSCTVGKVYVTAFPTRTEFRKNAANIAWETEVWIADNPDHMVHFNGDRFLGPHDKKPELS
Experimental: (§1) Restriction enzyme assays. Restriction digests were performed as specified and the products were separated on 0.8% agarose gels electrophoresed at 80-90V in 1× Tris borate EDTA buffer. Gels were photographed, scanned and quantitated using NIH Image v.1.55, as recommended in the instruction manual.

Nde I = test: Restriction enzyme assay on pUC19; details: Nde I (CATATG)
Experimental: as §1

Xba I = test: Restriction enzyme assay on pUC19; details: Xba I (TCTAGA)
Experimental: as §1

Hind III = target: T3, Hind III (Haemophilus influenzae, UniProt P43870); test: Restriction enzyme assay on pUC19
T3 construct: purchased New England BioLabs
T3 sequence (P43870 whole entry): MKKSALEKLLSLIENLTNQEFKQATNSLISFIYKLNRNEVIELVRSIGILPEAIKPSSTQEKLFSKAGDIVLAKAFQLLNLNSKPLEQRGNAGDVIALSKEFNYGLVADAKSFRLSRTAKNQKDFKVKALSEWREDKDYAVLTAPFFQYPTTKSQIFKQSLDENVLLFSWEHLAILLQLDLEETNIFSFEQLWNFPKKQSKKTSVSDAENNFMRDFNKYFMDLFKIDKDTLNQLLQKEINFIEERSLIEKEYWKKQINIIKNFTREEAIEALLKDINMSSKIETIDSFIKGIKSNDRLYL
Experimental: as §1

[2] = target: bacteriophage λ Integrase (Int) (Escherichia phage lambda, UniProt P03700); test: Top strand cleavage of phosphorothiolate-modified attL (attLS); details: with Int, IHF, Xis and attR
Experimental: FIG. 18 depicts effect of peptide WKHYNY on DNA cleavage. A. Time course of resolution of excision HJs. HJs were isolated, and Int, IHF, and Xis were added in the presence or absence of peptide 52 (100 μM) and stopped at various timepoints (1, 5, 15, 30, 60, and 90 min). Absence of peptide, closed circles; presence of peptide, open squares. B. The extent of strand cleavage of attL. An attL site containing a phosphorothiolate modification at the point of top strand cleavage (attLS) was incubated with Int, IHF, and Xis, in the presence of attR and in the presence or absence of peptide WKHYNY. Absence of peptide, open squares; presence of peptides, closed diamonds.
In contrast, the peptide has little or no effect on the, rate of cleavage of the attL early intermediate under recombination conditions (FIG. 18B). We measured this by using attL substrates containing a bridging phosphorothiolate modification at the locus of top strand cleavage. This modification, developed by Burgin and Nash (1995), replaces a bridging oxygen atom in the DNA backbone with a sulfur atom. Upon cleavage, the covalent Int-DNA intermediate remains trapped because the sulfhydryl generated at the free 5′ end is a much poorer nucleophile of the phosphotyrosyl bond than the normal hydroxyl group (Burgin et al., 1995). […]
Target sequence in this assay (P0A6X7 whole entry partner, one chain of several): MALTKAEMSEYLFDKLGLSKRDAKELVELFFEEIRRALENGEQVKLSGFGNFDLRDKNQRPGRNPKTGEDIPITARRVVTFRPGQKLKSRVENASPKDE
Target sequence in this assay (P0A6Y1 whole entry partner, one chain of several): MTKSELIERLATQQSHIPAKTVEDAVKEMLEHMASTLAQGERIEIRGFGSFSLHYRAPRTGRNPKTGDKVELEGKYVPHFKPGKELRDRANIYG
Target sequence in this assay (P03699 whole entry partner, one chain of several): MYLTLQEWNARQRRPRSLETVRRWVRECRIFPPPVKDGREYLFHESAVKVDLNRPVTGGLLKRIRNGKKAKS

Row | Substance | inhibition of accumulation of attL and attR CPDs [1] | pIC50 (Pst I) | pIC50 (Nde I) | pIC50 (Xba I) | pIC50 (Hind III) | effect on first strand cleavage of attLS [2]
1 | KWWCRW-NH2 [Peptide 59, KWWCRW] | 65-75% | 4.36 | 4.43 | 4.43 | 4.32 | –
2 | WKHYNY-NH2 [Peptide 52, WKHYNY] | – | – | – | – | – | no influence on the kinetics or the amount of cleavage
